In patent US20170049843A1, “Hepatocyte Growth Factor Mimics as Therapeutic Agents” (WASHINGTON STATE UNIVERSITY, priority 2011, published 2017):
Where a SMILES comes first, the peptide text is derived from it. [ ]: non-standard residue; d: D form. The star is where a group is joined. Nle = CCCC[C@H](N)C(=O)O; Hexanoyl = CCCCCC(=O)*; Ahx = NCCCCCC(=O)O

Assays:
Assay type in all cases: cell-based, rat
hippocampal neurons [1] = assay: Immunocytochemistry: correlation of spines to synaptic markers (VGLUT1, Synapsin, PSD-95); conditions: 5 days; for Number of spines/50 μm (PSD-95 staining experiment) / Number of spines/50 μm (Synapsin staining experiment) / Number of spines/50 μm (VGLUT1 staining experiment): 10^−12 M, N=25
Method: (§1) Transfected neurons were treated, fixed and stained. Briefly, cells were permeablized with 0.1% Triton X-100 detergent (Bio-Rad; Hercules, Calif.) for 10 minutes. An 8% bovine serum albumin (Intergen Company; Burlington, Mass.) in PBS was used to prevent non-specific binding for one hour at R.T.; Primary antibody incubations were at a 1:2500 dilution (see below) in 1% BSA in PBS at 4° C. overnight. Secondary antibody, 1:3000 Alexafluor 488 goat-anti-mouse (Invitrogen: Carlsbad, Calif.) was applied for two hours at room temperature. Coverslips were mounted with ProLong Gold anti-fade reagent (Invitrogen; Carlsbad, Calif.) and all washes were done with PBS. Imaging and analysis were performed as described above. For presynaptic excitatory transmission the VGLUT1 (Synaptic Systems, Goettingen, Germany) marker (Balschun, Moechars et al.) was employed and for general presynaptic transmission synapsinl (Synaptic Systems, Goettingen, Germany) (Ferreira and Rapoport 2002) was applied. A postsynaptic function was established by PSD-95 (Milipore, Billerica, Mass.) (El-Husseini, Schnell et al. 2000). In each instance the total number of spines was counted for the treatment groups, control, Nle1-AngIV and Dihexa, to ensure an active phenotype. The total number of actin enriched spines adjacent to VGLUT1 or Synapsin were counted and converted to a percentage as the percent correlation of treatment-induced spines to presynaptic markers is a strong indicator of ability to transmit excitatory signals.
as §1, with “fixed and stained as previously described in Chapter two. Briefly, cells” for “fixed and stained. Briefly, cells”, “enriched spines (red) adjacent to” for “enriched spines adjacent to”

hippocampal neurons [2] = assay: Whole-cell recordings of mEPSCs in dissociated hippocampal neurons; set-up: mean mEPSC frequency: unit not given beside the values; conditions: 5 days
CA1 hippocampal neurons = assay: Spinogenesis in organotypic hippocampal slice cultures (CA1 neurons); conditions: for mean spine numbers per 50 μm dendrite length, CA1 neurons: 10^−12 M Dihexa or 10 ng/ml HGF, 48 hours, control 6.1; for spines per 50 μm dendrite length, CA1 neurons: 10-12 M, 2 day treatment, control 7
Method: (§2) Hippocampi from P4 Sprague Dawley rats were cultured as previously described (Wayman, Impey et al. 2006). Briefly, 400 μm slices were cultured on (Milipore, Billerica, Mass.) for 3 days after which they were biolistically transfected with tomato fluorescent protein (TFP) using a Helios Gen Gun (BioRad, Hercules, Calif.), according to the manufacturer's protocol, to visualize dendritic arbors. Following a 24 hour recovery period slices were stimulated with vehicle (H2O), 1 pM Nle1-AngIV or Dihexa for 2 days. Slices were fixed and mounted. Hippocampal CA1 neuronal processes were imaged and measured as described above.
as §2, with “Gene” for “Gen”, “with” for “with vehicle (H2O),”

[3] = 10^−12 M Dihexa or 10 ng/ml HGF, control 3.55±0.60
[4] = Hinge 10^−12 M, HGF 10 ng/ml, Dihexa 10^−12 M, alone or combined, vehicle 5.31±0.35

Q: Which “correlation between presynaptic marker Synapsin and postsynaptic spines” value (hippocampal neurons [1]; HGF 10 ng/ml, vehicle 94%) does the source give for “HGF: recombinant hepatocyte growth factor (R&D Systems), ligand of c-Met” here?
A: 98%

Q: And the “mean mEPSC frequency” value (hippocampal neurons [2]; [3])?
A: 7.09±0.53

Q: What about the “mean mEPSC frequency” value (hippocampal neurons [2]; [4]) of the same compound?
A: 9.66±0.20

Q: And the “mean spine numbers per 50 μm dendrite length, CA1 neurons” value (CA1 hippocampal neurons)?
A: 18.5

Q: What does the source list for `CCCC[C@H](N)C(=O)N[C@@H](Cc1ccc(O)cc1)C(=O)N[C@H](C(=O)N[C@@H](Cc1c[nH]cn1)C(=O)N1CCC[C@H]1C(=O)N[C@@H](Cc1ccccc1)C(=O)O)[C@@H](C)CC` [Nle1-AngIV, reference compound] (H-[Nle]YIHPF-OH; N-terminus and C-terminus assumed)?
A: Number of spines/50 μm (PSD-95 staining experiment) (hippocampal neurons [1]): 36 spines/50 μm; Number of spines/50 μm (Synapsin staining experiment) (hippocampal neurons [1]): 31 spines/50 μm; Number of spines/50 μm (VGLUT1 staining experiment) (hippocampal neurons [1]): 39 spines/50 μm; mean frequency of AMPA-mediated mEPSCs (hippocampal neurons [2]; 10-12 M, vehicle 3.06±0.23 Hz): 5.27±0.43 Hz; spines per 50 μm dendrite length, CA1 neurons (CA1 hippocampal neurons): 11 spines per 50 μm dendrite length

Q: Which results are given for `CCCCCC(=O)N[C@@H](Cc1ccc(O)cc1)C(=O)N[C@H](C(=O)NCCCCCC(N)=O)[C@@H](C)CC` [Dihexa, N-hexanoic-Tyr-Ile-(6)-aminohexanoic amide] (Hexanoyl-Tyr-Ile-[Ahx]-NH2)?
A: Number of spines/50 μm (PSD-95 staining experiment) (hippocampal neurons [1]): 43 spines/50 μm; Number of spines/50 μm (Synapsin staining experiment) (hippocampal neurons [1]): 37 spines/50 μm; Number of spines/50 μm (VGLUT1 staining experiment) (hippocampal neurons [1]): 44 spines/50 μm; mean mEPSC frequency (hippocampal neurons [2]; [3]): 6.75±0.99; mean mEPSC frequency (hippocampal neurons [2]; [4]): 8.25±0.56; spines per 50 μm dendrite length, CA1 neurons (CA1 hippocampal neurons): 11 spines per 50 μm dendrite length; mean spine numbers per 50 μm dendrite length, CA1 neurons (CA1 hippocampal neurons): 15.0
